According to ChEMBL document CHEMBL3885861, “Open TG-GATES”:

Species: Rattus norvegicus
Assay: Open TG-GATES - Regimen: Daily Repeat
Format: toxicity, organism-based, Sprague-Dawley
Parameters: regimen Daily Repeat, gender Male, age 6 weeks
Settings: in vivo, po, route gavage; for APTT / Bas / Eos / Fbg / Hb / Ht / Lym / MCH / MCHC / MCV / Mono / Neu / PT / Plat / RBC / Ret / WBC: tissue Blood; for KIDNEY_L / KIDNEY_R / KIDNEY_TOTAL: tissue Kidney; for LIVER: tissue Liver; for A/G / ALP / ALT / AST / BUN / CRE / Ca / Cl / DBIL / GLC / IP / K / LDH / Na / PL / RALB / TBIL / TC / TG / TP / gamma-GTP: tissue Plasma
[1] = 50 mg/kg, 72 h, dose level Middle, time 3 day
[2] = 50 mg/kg, […], dose level Middle, time 7 day
[3] = 50 mg/kg, […], dose level Middle, time 14 day
[4] = 50 mg/kg, […], dose level Middle, time 28 day
[5] = 150 mg/kg, 72 h, dose level High, time 3 day
[6] = 150 mg/kg, […], dose level High, time 7 day
[7] = 150 mg/kg, […], dose level High, time 14 day
[8] = 150 mg/kg, […], dose level High, time 28 day

O=c1ccc2ccccc2o1 [COUMARIN]
TERMINAL_BW [1]: 194.4 g
APTT [1]: 14.9 s
Bas [1]: 0%
Eos [1]: 1.2%
Fbg [1]: 201.2 mg/dL
Hb [1]: 13.2 g/dL
Ht [1]: 40.2%
Lym [1]: 71.6%
MCH [1]: 21.3 pg
MCHC [1]: 33%
MCV [1]: 64.5 fL
Mono [1]: 6.2%
Neu [1]: 21%
PT [1]: 11.4 s
Plat [1]: 114.2 x10_4/uL
RBC [1]: 623.4 x10_4/ul
Ret [1]: 7.4%
WBC [1]: 101.6 x10_2/uL
KIDNEY_L [1]: 0.9 g
KIDNEY_R [1]: 0.9 g
KIDNEY_TOTAL [1]: 1.8 g
LIVER [1]: 10 g
A/G [1]: 1.9
ALP [1]: 1143 IU/L
ALT [1]: 43.8 IU/L
AST [1]: 65.4 IU/L
BUN [1]: 14.2 mg/dL
CRE [1]: 0.5 mg/dL
Ca [1]: 10.9 mg/dL
Cl [1]: 106 meq/L
DBIL [1]: 0.03 mg/dL
GLC [1]: 182.4 mg/dL
IP [1]: 7.6 mg/dL
K [1]: 5.2 meq/L
LDH [1]: 94 IU/L
Na [1]: 139.4 meq/L
PL [1]: 150.6 mg/dL
RALB [1]: 3.7 g/dL
TBIL [1]: 0.3 mg/dL
TC [1]: 95.4 mg/dL
TG [1]: 37 mg/dL
TP [1]: 5.7 g/dL
gamma-GTP [1]: 1.2 IU/L
TERMINAL_BW [2]: 221.4 g
TERMINAL_BW [3]: 270.1 g
TERMINAL_BW [4]: 361.7 g
APTT [2]: 16.9 s
Bas [2]: 0%
Eos [2]: 1%
Fbg [2]: 218 mg/dL
Hb [2]: 13.4 g/dL
Ht [2]: 39.9%
Lym [2]: 82.8%
MCH [2]: 21.3 pg
MCHC [2]: 33.4%
MCV [2]: 63.9 fL
Mono [2]: 3.2%
Neu [2]: 13.4%
PT [2]: 11.3 s
Plat [2]: 120.8 x10_4/uL
RBC [2]: 625 x10_4/ul
Ret [2]: 6.2%
WBC [2]: 135.8 x10_2/uL
APTT [3]: 17.5 s
Bas [3]: 0%
Eos [3]: 0.6%
Fbg [3]: 249 mg/dL
Hb [3]: 13.8 g/dL
Ht [3]: 41.7%
Lym [3]: 87%
MCH [3]: 20.1 pg
MCHC [3]: 33.2%
MCV [3]: 60.5 fL
Mono [3]: 3.8%
Neu [3]: 8.8%
PT [3]: 11.3 s
Plat [3]: 120.6 x10_4/uL
RBC [3]: 689.8 x10_4/ul
Ret [3]: 4.8%
WBC [3]: 163.9 x10_2/uL
APTT [4]: 19 s
Bas [4]: 0%
Eos [4]: 1%
Fbg [4]: 239.2 mg/dL
Hb [4]: 14.2 g/dL
Ht [4]: 42.4%
Lym [4]: 81%
MCH [4]: 19.1 pg
MCHC [4]: 33.6%
MCV [4]: 56.8 fL
Mono [4]: 4.2%
Neu [4]: 14.2%
PT [4]: 11.6 s
Plat [4]: 109.4 x10_4/uL
RBC [4]: 745.8 x10_4/ul
Ret [4]: 3.1%
WBC [4]: 125.8 x10_2/uL
KIDNEY_L [2]: 1 g
KIDNEY_R [2]: 1 g
KIDNEY_TOTAL [2]: 2.1 g
KIDNEY_L [3]: 1.2 g
KIDNEY_R [3]: 1.2 g
KIDNEY_TOTAL [3]: 2.3 g
KIDNEY_L [4]: 1.4 g
KIDNEY_R [4]: 1.4 g
KIDNEY_TOTAL [4]: 2.7 g
LIVER [2]: 11.3 g
LIVER [3]: 14.8 g
LIVER [4]: 19 g
A/G [2]: 2
ALP [2]: 996 IU/L
ALT [2]: 41 IU/L
AST [2]: 54.2 IU/L
BUN [2]: 15 mg/dL
CRE [2]: 0.6 mg/dL
Ca [2]: 11 mg/dL
Cl [2]: 104.8 meq/L
DBIL [2]: 0.04 mg/dL
GLC [2]: 193.6 mg/dL
IP [2]: 7.7 mg/dL
K [2]: 5 meq/L
LDH [2]: 98.8 IU/L
Na [2]: 139 meq/L
PL [2]: 164.6 mg/dL
RALB [2]: 3.9 g/dL
TBIL [2]: 0.3 mg/dL
TC [2]: 99.6 mg/dL
TG [2]: 36 mg/dL
TP [2]: 5.9 g/dL
gamma-GTP [2]: 1 IU/L
A/G [3]: 2
ALP [3]: 739.4 IU/L
ALT [3]: 34 IU/L
AST [3]: 53.8 IU/L
BUN [3]: 19.6 mg/dL
CRE [3]: 0.5 mg/dL
Ca [3]: 11.1 mg/dL
Cl [3]: 105.4 meq/L
DBIL [3]: 0.068 mg/dL
GLC [3]: 194 mg/dL
IP [3]: 6.8 mg/dL
K [3]: 4.8 meq/L
LDH [3]: 81.2 IU/L
Na [3]: 138.6 meq/L
PL [3]: 212.4 mg/dL
RALB [3]: 4.2 g/dL
TBIL [3]: 0.3 mg/dL
TC [3]: 115.8 mg/dL
TG [3]: 88.4 mg/dL
TP [3]: 6.4 g/dL
gamma-GTP [3]: 1 IU/L
A/G [4]: 1.7
ALP [4]: 603 IU/L
ALT [4]: 41.8 IU/L
AST [4]: 52 IU/L
BUN [4]: 21 mg/dL
CRE [4]: 0.6 mg/dL
Ca [4]: 11 mg/dL
Cl [4]: 105.2 meq/L
DBIL [4]: 0.022 mg/dL
GLC [4]: 183.4 mg/dL
IP [4]: 6.4 mg/dL
K [4]: 4.4 meq/L
LDH [4]: 66.2 IU/L
Na [4]: 139.4 meq/L
PL [4]: 195.6 mg/dL
RALB [4]: 4.3 g/dL
TBIL [4]: 0.3 mg/dL
TC [4]: 99.2 mg/dL
TG [4]: 104 mg/dL
TP [4]: 6.9 g/dL
gamma-GTP [4]: 1.6 IU/L
TERMINAL_BW [5]: 168.7 g
APTT [5]: 14.2 s
Bas [5]: 0%
Eos [5]: 1%
Fbg [5]: 193.7 mg/dL
Hb [5]: 14.6 g/dL
Ht [5]: 43.8%
Lym [5]: 80.8%
MCH [5]: 21 pg
MCHC [5]: 33.2%
MCV [5]: 63.2 fL
Mono [5]: 4.8%
Neu [5]: 13.6%
PT [5]: 11.5 s
Plat [5]: 117.7 x10_4/uL
RBC [5]: 693.6 x10_4/ul
Ret [5]: 3.5%
WBC [5]: 97.2 x10_2/uL
KIDNEY_L [5]: 0.8 g
KIDNEY_R [5]: 0.8 g
KIDNEY_TOTAL [5]: 1.6 g
LIVER [5]: 9.5 g
A/G [5]: 2.2
ALP [5]: 1111.8 IU/L
ALT [5]: 54.6 IU/L
AST [5]: 72 IU/L
BUN [5]: 16 mg/dL
CRE [5]: 0.5 mg/dL
Ca [5]: 10.9 mg/dL
Cl [5]: 106 meq/L
DBIL [5]: 0.072 mg/dL
GLC [5]: 178.2 mg/dL
IP [5]: 8 mg/dL
K [5]: 4.8 meq/L
LDH [5]: 162 IU/L
Na [5]: 139.6 meq/L
PL [5]: 168 mg/dL
RALB [5]: 3.8 g/dL
TBIL [5]: 0.3 mg/dL
TC [5]: 95.2 mg/dL
TG [5]: 30.2 mg/dL
TP [5]: 5.6 g/dL
gamma-GTP [5]: 1.8 IU/L
TERMINAL_BW [6]: 202.2 g
TERMINAL_BW [7]: 250.7 g
TERMINAL_BW [8]: 305.5 g
APTT [6]: 16.5 s
Bas [6]: 0%
Eos [6]: 1%
Fbg [6]: 236 mg/dL
Hb [6]: 13.3 g/dL
Ht [6]: 40.2%
Lym [6]: 81.2%
MCH [6]: 20.5 pg
MCHC [6]: 33%
MCV [6]: 62.2 fL
Mono [6]: 3.6%
Neu [6]: 14.2%
PT [6]: 11.5 s
Plat [6]: 121.9 x10_4/uL
RBC [6]: 646.6 x10_4/ul
Ret [6]: 5.4%
WBC [6]: 152.2 x10_2/uL
APTT [7]: 17.3 s
Bas [7]: 0%
Eos [7]: 1%
Fbg [7]: 238 mg/dL
Hb [7]: 13.5 g/dL
Ht [7]: 40.8%
Lym [7]: 77.6%
MCH [7]: 20 pg
MCHC [7]: 33.1%
MCV [7]: 60.5 fL
Mono [7]: 7.8%
Neu [7]: 13.8%
PT [7]: 11.4 s
Plat [7]: 129.9 x10_4/uL
RBC [7]: 674.8 x10_4/ul
Ret [7]: 5.1%
WBC [7]: 131.3 x10_2/uL
APTT [8]: 16.9 s
Bas [8]: 0%
Eos [8]: 1.2%
Fbg [8]: 229.8 mg/dL
Hb [8]: 14.7 g/dL
Ht [8]: 44.2%
Lym [8]: 79.4%
MCH [8]: 18.4 pg
MCHC [8]: 33.2%
MCV [8]: 55.3 fL
Mono [8]: 5.4%
Neu [8]: 14.2%
PT [8]: 11.4 s
Plat [8]: 120.2 x10_4/uL
RBC [8]: 800.8 x10_4/ul
Ret [8]: 2.9%
WBC [8]: 123.8 x10_2/uL
KIDNEY_L [6]: 0.9 g
KIDNEY_R [6]: 0.9 g
KIDNEY_TOTAL [6]: 1.8 g
KIDNEY_L [7]: 1.1 g
KIDNEY_R [7]: 1.1 g
KIDNEY_TOTAL [7]: 2.2 g
KIDNEY_L [8]: 1.2 g
KIDNEY_R [8]: 1.2 g
KIDNEY_TOTAL [8]: 2.4 g
LIVER [6]: 11.5 g
LIVER [7]: 14.4 g
LIVER [8]: 16.2 g
A/G [6]: 2
ALP [6]: 807 IU/L
ALT [6]: 43.8 IU/L
AST [6]: 54.4 IU/L
BUN [6]: 13 mg/dL
CRE [6]: 0.6 mg/dL
Ca [6]: 10.9 mg/dL
Cl [6]: 104.2 meq/L
DBIL [6]: 0.058 mg/dL
GLC [6]: 180.2 mg/dL
IP [6]: 7.2 mg/dL
K [6]: 4.9 meq/L
LDH [6]: 181 IU/L
Na [6]: 139.2 meq/L
PL [6]: 182.2 mg/dL
RALB [6]: 4.1 g/dL
TBIL [6]: 0.2 mg/dL
TC [6]: 101.4 mg/dL
TG [6]: 33.4 mg/dL
TP [6]: 6.2 g/dL
gamma-GTP [6]: 1.4 IU/L
A/G [7]: 1.9
ALP [7]: 789 IU/L
ALT [7]: 52.8 IU/L
AST [7]: 62.8 IU/L
BUN [7]: 16.8 mg/dL
CRE [7]: 0.6 mg/dL
Ca [7]: 11 mg/dL
Cl [7]: 106.4 meq/L
DBIL [7]: 0.072 mg/dL
GLC [7]: 181 mg/dL
IP [7]: 6.8 mg/dL
K [7]: 4.9 meq/L
LDH [7]: 188 IU/L
Na [7]: 139.8 meq/L
PL [7]: 198.6 mg/dL
RALB [7]: 4 g/dL
TBIL [7]: 0.2 mg/dL
TC [7]: 106.4 mg/dL
TG [7]: 49.4 mg/dL
TP [7]: 6.2 g/dL
gamma-GTP [7]: 1.2 IU/L
A/G [8]: 1.7
ALP [8]: 689.6 IU/L
ALT [8]: 67.2 IU/L
AST [8]: 63 IU/L
BUN [8]: 19.6 mg/dL
CRE [8]: 0.6 mg/dL
Ca [8]: 11.2 mg/dL
Cl [8]: 106.6 meq/L
DBIL [8]: 0.046 mg/dL
GLC [8]: 177.6 mg/dL
IP [8]: 6.8 mg/dL
K [8]: 4.6 meq/L
LDH [8]: 147.2 IU/L
Na [8]: 139.2 meq/L
PL [8]: 222.8 mg/dL
RALB [8]: 4.4 g/dL
TBIL [8]: 0.2 mg/dL
TC [8]: 121.8 mg/dL
TG [8]: 70.8 mg/dL
TP [8]: 6.9 g/dL
gamma-GTP [8]: 0.6 IU/L
